Tests used:
human leukocyte elastase = human leukocyte elastase (Homo sapiens, UniProt P08246); conditions: cited from earlier work
Syrian hamsters = experiment: Scoring of adhesion formation after uterine denudation surgery in hamsters; format: in vivo, hamster; conditions: for preventative effect, reducing adhesion formation: subsequent experiments in the hamster model with enantiomerically enriched preparations
Procedure: (§1) Mature female Syrian hamsters (SLC, Shizuoka, Japan), 6 weeks of age, weighing 85 to 90 g were maintained in an environmentally controlled room with a 12-hour light, 12-hour dark cycle. Hamsters were anesthetized with intraperitoneal sodium pentobarbital (50 mg/kg). Surgical technique was performed using a modified procedure of Nagler et al. (Am. J. Obstet. Gynecol. 180:558-63, 1999). An abdominal midline incision was made, and the right uterus was grasped and denuded of serosa over half the length of the uterine body until punctate hemorrhage occurred, using a swab. In the […], 1 ml of 10 μM Suc-Val-Pro-Phe^P(OPh)2 in saline was injected into the abdomen. Then, the abdomen was closed in two layers with silk sutures. In the placebo group, the same 1 ml amount of saline was administered as in the chymase inhibitor group.
Three days after the surgery, the animals (placebo group, n=13; chymase group, n=13) were anesthetized with sodium pentobarbital (50 mgikg, i.p.), and then the uterus was removed for the measurement of chymase activity. Two weeks after the surgery, the animals (placebo group, n=15; chymase group, n=16) were anesthetized with sodium pentobarbital (50 mg/kg, i.p.), and then adhesions were assessed.
The adhesions were graded blindly according to a modified classification of Hulka et al. (Fertil Steril. 30:661-665, 1978): Score 0, no adhesions; Score 1, mild adhesions; Score 2, localized moderate adhesions; Score 3, moderate and wide adhesions; Score 4, severe adhesions, and impossible to separate. Chymase activities were evaluated in a parametric test using Fisher's Protected Least Significant Difference. Adhesion scores were evaluated in a nonparametric test, and statistically analyzed by the Mann-Whitney's U test. Values are given as means ±standard error (S.E.). Differences were considered statistically significant at P<0.05.

[1] = tested on: chymotrypsin and chymotrypsin-like enzymes; conditions: cited from earlier work
chymase [2] = biological target: T1, chymase (Homo sapiens, UniProt P23946); experiment: Chymase activity in vascular tissues after administration during the operation; format: in vivo; conditions: for 4 weeks, 10 μM administration only during the operation
T1 construct: from tissue
T1 sequence (P23946 22-247): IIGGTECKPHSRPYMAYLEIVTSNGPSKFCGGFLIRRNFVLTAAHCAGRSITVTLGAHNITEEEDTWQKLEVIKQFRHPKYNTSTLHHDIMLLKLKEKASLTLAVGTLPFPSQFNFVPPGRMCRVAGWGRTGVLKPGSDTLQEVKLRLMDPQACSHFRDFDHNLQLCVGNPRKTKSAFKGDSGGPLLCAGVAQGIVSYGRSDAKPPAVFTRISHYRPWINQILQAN
From the text: Pursuant to the method of the present invention, at least one protease inhibitor is maintained in an effective concentration at the site of potential adhesion formation for a period of time sufficient to permit substantial re-epithelialization. The protease inhibitor compound is typically administered over the perioperative interval, which for purposes of the present invention may include a period of time prior to surgery, through surgery itself, and also post-completion of surgery. The term of administration of administration may vary, but typically should be effected from the time of surgery for at least 24 to 48 hours after completion of surgical procedures. In general, the protease inhibitory compound may be administered, with or without sustained release vehicles or formulations, from the time of surgery for a period ranging between about 24 hours and about 14 days (a period that generally will include complete healing). Preferably the compound may be administered as above from the time of surgery for a period ranging between about 24 hours and 7 days, and more preferably ranging between about 24 hours and 3 days. […] Effective dosages, regimens, and routes of administration for other protease inhibitors may be readily determined by one of skill in the art using the teachings provided herein.

chymase [3] = experiment: Uterus chymase activity after uterine denudation surgery in hamsters; format: in vivo, hamster; conditions: three days after the operation; 1 ml of 10 μM in saline injected into the abdomen; mean ± S.E.; P=0.06 vs placebo (0.88±0.09)
Procedure: as §1, with “In the placebo group, the same 1 ml amount of saline was administered as in the chymase inhibitor group.” left out
Three days after the surgery, the animals (placebo group, n=13; chymase group, n=13) were anesthetized with sodium pentobarbital (50 mgikg, i.p.), and then the uterus was removed for the measurement of chymase activity. Two weeks after the surgery, the animals (placebo group, n=15; chymase group, n=16) were anesthetized with sodium pentobarbital (50 mg/kg, i.p.), and then adhesions were assessed. […]
Chymase activity was measured as described previously (Jin et al., J. Hypertens. 16:657-664, 1998). […] Protein concentration was measured with the bicinchoninic acid protein assay reagent (Pierce Chemical, Rockford, Ill.) using bovine serum albumin as a standard. […]

[4] = cited from earlier work
bovine thrombin = bovine thrombin (Bos taurus, UniProt P00735); conditions: cited from earlier work

human leukocyte elastase, sequence (P08246 30-267): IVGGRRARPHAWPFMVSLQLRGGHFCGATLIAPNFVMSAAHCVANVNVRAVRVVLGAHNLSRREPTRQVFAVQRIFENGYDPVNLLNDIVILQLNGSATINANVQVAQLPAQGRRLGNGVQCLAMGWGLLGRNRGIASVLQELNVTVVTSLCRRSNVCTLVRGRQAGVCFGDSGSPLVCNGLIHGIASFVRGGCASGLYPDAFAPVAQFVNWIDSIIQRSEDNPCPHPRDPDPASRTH

In the case of MeO-Suc-Ala-Ala-Pro-Val^P(OPh)2, the “inhibitor potency for human leukocyte elastase” value (human leukocyte elastase) is listed as “relatively potent inhibitors”.
In the case of `CC(C)[C@H](NC(=O)CCC(=O)O)C(=O)N1CCC[C@H]1C(=O)NC(Cc1ccccc1)P(=O)(Oc1ccccc1)Oc1ccccc1` (stereo partly drawn) [Suc-Val-Pro-Phe^P(OPh)2-I], the “preventative effect, reducing adhesion formation” value (Syrian hamsters) is reported as “not”.
In the case of `CC(C)[C@H](NC(=O)CCC(=O)O)C(=O)N1CCC[C@H]1C(=O)NC(Cc1ccccc1)P(=O)(Oc1ccccc1)Oc1ccccc1` (stereo partly drawn) [Suc-Val-Pro-Phe^P(OPh)2], the “inhibitor potency for chymotrypsin and chymotrypsin-like enzymes” value [1] is listed as “relatively potent inhibitor”, the “scores of adhesion formation” value (Syrian hamsters; two weeks after surgery, 1 ml of 10 μM in saline into the abdomen, score 0-4, mean ± S.E., placebo 2.07±0.34, difference significant) is listed as 0.88±0.20 and the “highest score of adhesion formation found” value (Syrian hamsters; two weeks after surgery, score 0-4, placebo scores between 0 and 4) is listed as at most 3. For the same molecule, the “chymase activity in vascular tissues” value (chymase [2]) was “significantly suppressed”, the uterus chymase activity (chymase [3]) was 0.66±0.06 mU/mg protein and the “half-life in human plasma” value [4] was “approximately 20 hr”.
In the case of `CC(C)(C)OC(=O)N[C@H](Cc1ccccc1)C(=O)N1CCC[C@H]1C(=O)NC(c1ccc(C(=N)N)cc1)P(=O)(Oc1ccccc1)Oc1ccccc1.Cl` (stereo partly drawn) [diphenyl Boc-D-Phe-Pro-amino(4-amidinophenyl)methanephosphonate hydrochloride], the “inhibitor potency for bovine thrombin” value (bovine thrombin) is given as “potent phosphonate inhibitor”.
In the case of `CC(C)[C@H](NC(=O)CCC(=O)O)C(=O)N1CCC[C@H]1C(=O)NC(Cc1ccccc1)P(=O)(Oc1ccccc1)Oc1ccccc1` (stereo partly drawn) [Suc-Val-Pro-Phe^P(OPh)2-A], the “preventative effect, reducing adhesion formation” value (Syrian hamsters) is reported as “significant preventative effect”.
In the case of Boc-Val-Pro-Val^P(OPh)2, the “inhibitor potency for human leukocyte elastase” value (human leukocyte elastase) is given as “relatively potent inhibitors”.

From patent US20040018984A1, “Methods for preventing adhesion formation using protease inhibitors” (priority 2002, published 2004)
